In brackets after ≈: the same amount, converted by molar mass.
How the values were obtained:
Format in all cases: functional, cell-based
[1] = Cytotoxicity was evaluated against […] cells
P388 = test: Cytotoxicity was evaluated against P388 mouse lymphoma cells
[2] = Cytotoxicity was evaluated against MEL28 melanoma cells; conditions: Homo sapiens, SK-MEL-28
HT-29 = test: Cytotoxicity was evaluated against HT-29 human colon adenocarcinoma cells

SMILES	IC50 [1]	IC50 (P388)	IC50 [2]	IC50 (HT-29)
CC1=C2[C@@H](O)C(=O)[C@@]3(C)CC(C[C@H](OC(=O)c4ccccc4)[C@H](C[C@@H]1OC(=O)[C@H](O)[C@H](NC(=O)c1ccccc1)c1ccccc1)C2(C)C)[C@@H](O)C[C@@H]3O	6 µg/mL (≈ 8.11 µM)	6 µg/mL (≈ 8.11 µM)	6 µg/mL (≈ 8.11 µM)	6 µg/mL (≈ 8.11 µM)
CC(=O)O[C@H]1C[C@H]2[C@@H](OC(C)=O)/C=C3\C[C@](C)(C(=O)[C@H](O)C(=C1C)C2(C)C)[C@@H](O)C[C@@H]3O	> 10 µg/mL	> 10 µg/mL	> 10 µg/mL	> 10 µg/mL
CC(=O)O[C@H]1C(=O)[C@@]2(C)[C@H]([C@H](OC(=O)c3ccccc3)[C@]3(O)C[C@H](OC(=O)[C@H](O)[C@@H](NC(=O)c4ccccc4)c4ccccc4)C(C)=C1C3(C)C)[C@]1(OC(C)=O)CO[C@@H]1C[C@@H]2O [PACLITAXEL]	0.002 µg/mL (≈ 0.00234 µM)	0.2 µg/mL (≈ 0.234 µM)	0.002 µg/mL (≈ 0.00234 µM)	0.002 µg/mL (≈ 0.00234 µM)

Reference: ChEMBL document CHEMBL1130735, “A paclitaxel analogue with a 2(3-->20)abeotaxane skeleton: synthesis and biological evaluation” (Bioorg Med Chem Lett, 1998)
